Common to all, as to assay type: cell-based
Assay [1] has as its system mouse mast cell line 6.5. Nature of the assay: AlamarBlue conversion cell proliferation assay, 6.5 cell line. As to the method:
(§1) The in vitro anti-proliferative activity of compounds of formula (I), metformin and combinations thereof is tested in an AlamarBlue conversion cell proliferation assay (Promega) on HL60 tumor cells and the mouse mast cell line 6.5 (Colombi et al., Oncogene 2011, 30:1551-65). Cells are seeded into 96-well microtiter plates (seeding cell density is 7,000 cells per well in 150 uL Iscove's medium) and test compounds are added (compounds of formula (I) are added from a 10 mM stock solution in DMSO, metformin from a freshly prepared 1 M solution in culture medium). Plates are incubated for 3 days at 37°, 5% CO2 and proliferation is determined by AlamarBlue staining (0.1 vol % added to cultures and incubated for further 4-5 hours). The conversion of AlamarBlue is proportional to live cell number and is read with a fluorescence plate reader (Ex/Em 535/595 nm). Growth is normalized to the untreated controls.
In general terms: Resazurin is reduced to fluorescent resorufin, in cell work by metabolically active cells.

The test system of assay [2] is HL60 tumor cells. The assay is described as follows: AlamarBlue conversion cell proliferation assay, HL60 cell line. As to the method: as §1
The subject of assay [3] is HL60 tumor cells and the mouse mast cell line 6.5. The assay is described as follows: AlamarBlue conversion cell proliferation assay, general statements without cell line. The following applies: metformin alone at 4 mM.
[4] abbreviates: combined with 4 mM metformin, 3 days incubation, read-out: concentration that inhibits the proliferation of cells by approximately 50% when combined with 4 mM metformin, 6.5 cell line.
[5] abbreviates: combined with 4 mM metformin, 3 days incubation, read-out: concentration that inhibits the proliferation of cells by approximately 50% when combined with 4 mM metformin, HL60 cell line.

The structures appear in SMILES notation. Read-outs that look alike come from different tables or passages of the source.

As for `CCOC(=O)Oc1c(OC)cc(C(=O)O[C@@H]2C[C@@H]3CN4CCc5c([nH]c6cc(OC(C)=O)ccc56)[C@H]4C[C@@H]3[C@H](C(=O)OC)[C@H]2OC)cc1OC` [Example 14, methyl (1R,15S,17R,18R,19S,20S)-6-(acetyloxy)-17-({4-[(ethoxycarbonyl)oxy]-3,5-dimethoxyphenyl}carbonyloxy)-18-methoxy-3,13-diazapentacyclo[11.8.0.0^2,10.0^4,9.0^15,20]henicosa-2(10),4,6,8-tetraene-19-carboxylate], the IC50 in assay [1] (setting [4]) is 1500 nM; in assay [2] (setting [5]) it was 2000 nM.
On to `CN(C)C(=N)NC(=N)N` [Metformin, 3-(diaminomethylidene)-1,1-dimethylguanidine], for which the “anti-proliferative activity on its own” value in assay [3] is on record as “do not show significant anti-proliferative activity”.
With `COC(=O)[C@H]1[C@H]2C[C@@H]3c4[nH]c5cc(OC)ccc5c4CCN3C[C@H]2C[C@@H](OC(=O)c2cc(OC)c(OC(=O)OCc3cc(Cl)cc(Cl)c3)c(OC)c2)[C@@H]1OC` [Example 10, methyl (1R,15S,17R,18R,19S,20S)-17-{[4-({[(3,5-dichlorophenyl)methoxy]carbonyl}oxy)-3,5-dimethoxyphenyl]carbonyloxy}-6,18-dimethoxy-3,13-diazapentacyclo[11.8.0.0^2,10.0^4,9.0^15,20]henicosa-2(10),4,6,8-tetraene-19-carboxylate], the IC50 in assay [1] (setting [4]) and in assay [2] (setting [5]) was 1000 nM in each case.
`COC(=O)[C@H]1[C@H]2C[C@@H]3c4[nH]c5cc(OC)ccc5c4CCN3C[C@H]2C[C@@H](OC(=O)c2cc(OC)c(OC(=O)OCc3ccncc3)c(OC)c2)[C@@H]1OC` [Example 6, methyl (1R,15S,17R,18R,19S,20S)-17-[(3,5-dimethoxy-4-{[(pyridin-4-ylmethoxy)carbonyl]oxy}phenyl)carbonyloxy]-6,18-dimethoxy-3,13-diazapentacyclo[11.8.0.0^2,10.0^4,9.0^15,20]henicosa-2(10),4,6,8-tetraene-19-carboxylate]: the IC50 in assay [1] (read-out: concentration that inhibits the proliferation of cells by approximately 50% when combined with 4 mM metformin, 6.5 cell line, 3 days incubation) turned out to be 2500 nM; in assay [2] (read-out: concentration that inhibits the proliferation of cells by approximately 50% when combined with 4 mM metformin, HL60 cell line, 3 days incubation), 2500 nM.

For the origin of these results see US9511064B2, “Combination therapy for the treatment of cancer and immunosuppression” (Basilea Pharmaceutica AG, priority 2012, dated 2016).
